Experimental data from patent publication US11815435B2, “Beta glucan immunopharmacodynamics” (HiberCell, Inc., priority 2017, dated 2023).

How the values were obtained:
[1] = system: neutrophils, monocytes, B cells and subsets of dendritic cells (DC); assay: In vivo immune cell binding by flow cytometry from whole blood at EOI; parameters: species or system human; conditions: High-ABA subjects, anti-PGG MAb staining
Protocol: In vivo immune cell binding was assessed by flow cytometry from whole blood of subjects dosed with PGG at the EOI. Gates were set based on BFDPV staining (anti-PGG MAb) on blood cells prior to infusion.

[2] = system: intermediate monocytes; switched memory B cells and plasmablasts; assay: Flow cytometry of PBMC for monocyte populations, activation markers and B cells; assay type: in vivo, human
Protocol: Here, PBMC were stained with indicating markers and analyzed by flow cytometry. Each of the populations were assessed for expression of activation markers CD86, ICAM-1, HLA-DR and PD-L1 24 hours after infusion. In addition, approximately one week post-infusion, increased switched memory B cells and plasmablasts were detected (data not shown).

[3] = system: anti-β-glucan antibody (ABA IgG, ABA IgM); assay: Example 1: IgG and IgM ABA levels in a cancer subject on IVIG, IMPRIME PGG and pembrolizumab; assay type: in vivo, human; conditions: same subject and regimen
Protocol: Soluble β-glucan immunotherapy was administered to a subject diagnosed with glucaganoma. The subject's ABA level prior to immunotherapy treatment placed them in the Low-ABA subgroup, and therefore, their ABA level was boosted by administration of IVIG. GAMMAGARD at 100 mg/ml was intravenously administered prior to each treatment, which provided 161 μg ABA/ml. […] Each cycle was 3 weeks.

With “β(1,6)-[poly-(1,3)-D-glucopyranosyl]-poly-β(1,3)-D-glucopyranose [PGG]” the “in vivo immune cell binding” value [1] was “bound to neutrophils, monocytes, B cells and subsets of dendritic cells (DC)”, the “appearance of intermediate monocytes and activation markers” value ([2]; 24 hrs after EOI, High-ABA subjects) was “a population of intermediate monocytes expressing higher levels of the activation markers CD86, PD-L1 and HLA-DR was observed” and the “switched memory B cells and plasmablasts” value ([2]; approximately one week post-infusion, data not shown) was “increased”. The “ABA IgG” value ([3]; cycle 1, day 2 EOI IMPRIME) was 17.9 µg/mL, the “ABA IgM” value ([3]; cycle 1, day 2 EOI IMPRIME) was 6.0 µg/mL and the “ABA IgG” value ([3]; cycle 1, day 3) was 14.5 µg/mL. For the same substance, the “ABA IgM” value ([3]; cycle 1, day 3) was 8.3 µg/mL, the “ABA IgG” value ([3]; cycle 1, day 9) was 10.2 µg/mL and the “ABA IgM” value ([3]; cycle 1, day 9) was 10.1 µg/mL. For the same substance, the “ABA IgG” value ([3]; cycle 2, day 1 EOI-IMPRIME) was 50.4 µg/mL, the “ABA IgM” value ([3]; cycle 2, day 1 EOI-IMPRIME) was 11.7 µg/mL and the “ABA IgG” value ([3]; cycle 2, day 1 pre-IVIG) was 22.3 µg/mL. The “ABA IgM” value ([3]; cycle 2, day 1 pre-IVIG) was 18.5 µg/mL, the “ABA IgG” value ([3]; cycle 3, day 1 EOI-IMPRIME) was 57.4 µg/mL and the “ABA IgG” value ([3]; cycle 3, day 1 pre-IVIG) was 21.9 µg/mL.
